Experimental data: patent publication US10646488B2 (Araxes Pharma LLC, priority 2016, dated 2020)

target: T1, KRAS G12C 1-169, his-tagged protein, GDP-loaded (Homo sapiens, UniProt P01116, G12C); test: Covalent binding (% modification) to KRAS G12C by mass spectrometry; details: covalent binding to KRAS G12C after a ten minute incubation period
T1 construct: KRAS G12C 1-169, his-tagged protein, GDP-loaded
Method: Test compounds were prepared as 10 mM stock solutions in DMSO (Fisher cat # BP-231-100). KRAS G12C 1-169, his-tagged protein, GDP-loaded was diluted to 2 μm in buffer (20 mM Hepes, 150 mM NaCl, 1 mM MgCl2). Compounds were tested for activity as follows:
Compounds were diluted to 50× final test concentration in DMSO in 96-well storage plates. Compound stock solutions were vortexed before use and observed carefully for any sign of precipitation. Dilutions were as follow: • For 100 μM final compound concentration, compounds were diluted to 5000 μM (5 μl 10 mM compound stock+5 μl DMSO and mixed well by pipetting. • For 30 μM final compound concentration, compounds were diluted to 1500 μM (3 μl 10 mM compound stock+17 μl DMSO) and mixed well by pipetting. • For 10 μM final compound concentration, compounds were diluted to 500 μM (2 μl 10 mM compound stock+38 μl DMSO) and mixed well by pipetting. 49 μl of the stock protein solution was added to each well of a 96-well PCR plate (Fisher cat #1423027). 1 μl of the diluted 50× compounds were added to appropriate wells in the PCR plate using 12-channel pipettor. Reactions were mixed carefully and thoroughly by pipetting up/down with a 200·1 multi-channel pipettor. […] 5 μl of 2% formic acid (Fisher cat # A117) in DI H2O was then added to each well followed by mixing with a pipette. The plate was then resealed with aluminum seal and stored on dry ice until analyzed as described below.
The above described assays were analyzed by mass spectrometry according to one of the following two procedures:
The MS instrument is set to positive polarity, 2 GHz resolution, and low mass (1700) mode and allowed to equilibrate for 30 minutes. The instrument is then calibrated, switched to acquisition mode and the appropriate method loaded.
After another 30 minute equilibration time, a blank batch (i.e., buffer) is run to ensure equipment is operating properly. The samples are thawed at 37° C. for 10 minutes, briefly centrifuged, and transfer to the bench top. Wells A1 and H12 are spiked with 1 uL 500 uM internal standard peptide, and the plates centrifuged at 2000×g for 5 minutes. The method is then run and masses of each individual well recorded.
The masses (for which integration data is desired) for each well are pasted into the platemap and exported from the analysis. Masses for the internal standards are exported as well. The data at 50 ppm is extracted for the +19 charge state, and identity of well A1 is assigned using the internal standard spike and integrated. Peak data is exported as a TOF list and the above steps are repeated individually, for the +20, 21, 22, 23, 24, and 25 charge states.
The masses and peak intensities of KRAS G12C protein species were measured using a Dionex RSLCnano system (Thermo Scientific) connected to a Q Exactive Plus mass spectrometer (Thermo Scientific).
[…] of sample was each loaded onto a Aeris™ 3.6 μm WIDEPORE C4 200 Å, LC Column 50×2.1 mm column maintained at 40° C. at a flow rate of 600 μl min^−1 with […] (0.1% formic acid in acetonitrile). The liquid chromatography conditions were 20% solvent B for 1 min, 20% to 60% solvent B for 1.5 min, 60% to 90% solvent for 0.5 min, 90% solvent B for 0.2 min, 90% to 20% solvent B for 0.2 min, and then equilibrated for 1.6 min before the following sample injection. The flow rate was maintained at 600 μl min^−1 throughout the sample analysis.
The mass spectrometer was operated in profile mode at a resolution of 17500, 5 microscans, using 50 msec max injection time and an AGC target of 1e6, and a full mass range from 800-1850 m/z was recorded. The HCD trapping gas was optimized for maximum sensitivity for intact proteins. The ionization method was electrospray ionization, which used a spray voltage of 4 kV, sheath gas flow set to 50 au, auxiliary gas flow set to 10 au and sweep gas flow set to 1 au. […]

Structure (SMILES)	Binding %
C=CC(=O)N1[C@H](C)CN(c2nc(OCCN3CC(F)(F)C3)nc3c(F)c(-c4c(C)ccc5[nH]ncc45)c(Cl)cc23)C[C@@H]1C [Compound 41, 1-((2R,6S)-4-(6-chloro-2-(2-(3,3-difluoroazetidin-1-yl)ethoxy)-8-fluoro-7-(5-methyl-1H-indazol-4-yl)quinazolin-4-yl)-2,6-dimethyl-piperazin-1-yl) prop-2-en-1-one]	++ (++ indicates binding activity from 50 to 90%)
C=CC(=O)N1C[C@H](C)N(c2nc(OCCc3ccccn3)nc3c(F)c(-c4c(O)cccc4F)c(Cl)cc23)C[C@H]1C [Compound 65, 1-((2R,5S)-4-(6-chloro-8-fluoro-7-(2-fluoro-6-hydroxyphenyl)-2-(2-(pyridin-2-yl)ethoxy)quinazolin-4-yl)-2,5-dimethyl-piperazin-1-yl) prop-2-en-1-one]	+++ (+++ indicates binding activity greater than 90%)
C=CC(=O)N1C[C@H](C)N(c2nc(OCCN3CC(F)(F)C3)nc3c(F)c(-c4c(O)cccc4F)c(Cl)cc23)C[C@H]1C (atropisomer, axis not shown) [Compound 84, 1-((2R,5S)-4-((S)-6-chloro-2-(2-(3,3-difluoroazetidin-1-yl)ethoxy)-8-fluoro-7-(2-fluoro-6-hydroxyphenyl)quinazolin-4-yl)-2,5-dimethyl-piperazin-1-yl) prop-2-en-1-one]	+++ (+++ indicates binding activity greater than 90%)
C=CC(=O)N1C[C@@H](C)N(c2nc(OCCN3CC(F)(F)C3)nc3c(F)c(-c4c(O)cccc4F)c(Cl)cc23)[C@@H](C)C1 [Compound 22, 1-((3S,5R)-4-(6-chloro-2-(2-(3,3-difluoroazetidin-1-yl)ethoxy)-8-fluoro-7-(2-fluoro-6-hydroxyphenyl)quinazolin-4-yl)-3,5-dimethyl-piperazin-1-yl) prop-2-en-1-one]	++ (++ indicates binding activity from 50 to 90%)
C=CC(=O)N1[C@H](C)CN(c2nc(N3CC(O)C3)nc3c(F)c(-c4c(O)cccc4F)c(Cl)cc23)C[C@@H]1C [Compound 35, 1-((2R,6S)-4-(6-chloro-8-fluoro-7-(2-fluoro-6-hydroxyphenyl)-2-(3-hydroxy-azetidin-1-yl)quinazolin-4-yl)-2,6-dimethyl-piperazin-1-yl) prop-2-en-1-one]	++ (++ indicates binding activity from 50 to 90%)
C=CC(=O)N1C[C@@H](C)N(c2nc(OCCc3ccccn3)nc3c(F)c(-c4c(O)cccc4F)c(Cl)cc23)[C@@H](C)C1 [Compound 49, 1-((3S,5R)-4-(6-chloro-8-fluoro-7-(2-fluoro-6-hydroxyphenyl)-2-(2-(pyridin-2-yl)ethoxy)quinazolin-4-yl)-3,5-dimethyl-piperazin-1-yl) prop-2-en-1-one]	++ (++ indicates binding activity from 50 to 90%)
C=CC(=O)N1C[C@@H](C)N(c2nc(N3CC(O)C3)nc3c(F)c(-c4c(O)cccc4F)c(Cl)cc23)[C@@H](C)C1 [Compound 66, 1-((3R,5S)-4-(6-chloro-8-fluoro-7-(2-fluoro-6-hydroxyphenyl)-2-(3-hydroxyazetidin-1-yl)quinazolin-4-yl)-3,5-dimethyl-piperazin-1-yl) prop-2-en-1-one]	+++ (+++ indicates binding activity greater than 90%)
C=CC(=O)N1CCN(c2nc(OCCN(CC)CC)nc3c(F)c(-c4c(C)ccc5cn[nH]c45)c(Cl)cc23)[C@@H](C)C1 [Compound 28, 1-((3S)-4-(6-chloro-2-(2-(diethylamino)ethoxy)-8-fluoro-7-(6-methyl-1H-indazol-7-yl)quinazolin-4-yl)-3-methyl-piperazin-1-yl) prop-2-en-1-one]	+++ (+++ indicates binding activity greater than 90%)

same assay, conditions: covalent binding to KRAS G12C after a three minute incubation period

Structure (SMILES)	Binding %
C=CC(=O)N1C[C@H](C)N(c2nc(N3CC4(CCCN4C)C3)nc3c(F)c(-c4c(C)ccc5[nH]ncc45)c(Cl)cc23)C[C@H]1C [Compound 186, 1-((2R,5S)-4-(6-chloro-8-fluoro-7-(5-methyl-1H-indazol-4-yl)-2-(5-methyl-2,5-diazaspiro[3.4]octan-2-yl)quinazolin-4-yl)-2,5-dimethyl-piperazin-1-yl) prop-2-en-1-one]	++ (++ indicates binding activity from 50 to 90%)
C=CC(=O)N1C[C@H](C)N(c2nc(N3CC(N(CC)C4CC4)C3)nc3c(F)c(-c4c(O)cccc4F)c(Cl)cc23)C[C@H]1C [Compound 105, 1-((2R,5S)-4-(6-chloro-2-(3-(cyclopropyl (ethyl)amino)azetidin-1-yl)-8-fluoro-7-(2-fluoro-6-hydroxyphenyl)quinazolin-4-yl)-2,5-dimethyl-piperazin-1-yl) prop-2-en-1-one]	++ (++ indicates binding activity from 50 to 90%)
C[C@@H]1CN(c2nc(N3CC(N(C)C)C3)nc3c(F)c(-c4c(O)cccc4F)c(Cl)cc23)[C@@H](C)CN1C(=O)/C(C#N)=C/c1ccccn1 [Compound 111, (E)-2-((2R,5S)-4-(6-chloro-2-(3-(dimethylamino)azetidin-1-yl)-8-fluoro-7-(2-fluoro-6-hydroxyphenyl)quinazolin-4-yl)-2,5-dimethyl-piperazine-1-carbonyl)-3-(pyridin-2-yl) acrylonitrile]	+ (+ indicates binding activity greater than 0% and up to 50%)
C=CC(=O)N1C[C@H](C)N(c2nc(N3CC(C)(N(C)C)C3)nc3c(F)c(-c4c(C)ccc5[nH]ncc45)c(Cl)cc23)C[C@H]1C [Compound 121, 1-((2R,5S)-4-(6-chloro-2-(3-(dimethylamino)-3-methylazetidin-1-yl)-8-fluoro-7-(5-methyl-1H-indazol-4-yl)quinazolin-4-yl)-2,5-dimethyl-piperazin-1-yl) prop-2-en-1-one]	++ (++ indicates binding activity from 50 to 90%)
C=CC(=O)N1CCN(c2nc(N3CC(C)(N(C)C)C3)nc3c(F)c(-c4c(C)ccc5[nH]ncc45)c(Cl)cc23)[C@@H](C)C1 [Compound 150, 1-((3S)-4-(6-chloro-2-(3-(dimethylamino)-3-methylazetidin-1-yl)-8-fluoro-7-(5-methyl-1H-indazol-4-yl)quinazolin-4-yl)-3-methyl-piperazin-1-yl) prop-2-en-1-one]	+++ (+++ indicates binding activity greater than 90%)
C=CC(=O)N1C[C@H](C)N(c2nc(N3CC(N(C)C)C3)nc3c(F)c(-c4c(O)ccc5ccccc45)c(Cl)cc23)C[C@H]1C [Compound 211, 1-((2R,5S)-4-(6-chloro-2-(3-(dimethylamino)azetidin-1-yl)-8-fluoro-7-(2-hydroxynaphthalen-1-yl)quinazolin-4-yl)-2,5-dimethyl-piperazin-1-yl) prop-2-en-1-one]	++ (++ indicates binding activity from 50 to 90%)
C=CC(=O)N1C[C@H](C)N(c2nc(N3CC(N(C)C)C3)nc3c(F)c(-c4ccccc4O)c(Cl)cc23)C[C@H]1C [Compound 135, 1-((2R,5S)-4-(6-chloro-2-(3-(dimethylamino)azetidin-1-yl)-8-fluoro-7-(2-hydroxyphenyl)quinazolin-4-yl)-2,5-dimethyl-piperazin-1-yl) prop-2-en-1-one]	++ (++ indicates binding activity from 50 to 90%)
C=CC(=O)N1C[C@H](C)N(c2nc(N3CC(N(C)C)C3)nc3c(F)c(-c4cc(O)cc5ccccc45)c(Cl)cc23)C[C@H]1C [Compound 147, 1-((2R,5S)-4-(6-chloro-2-(3-(dimethylamino)azetidin-1-yl)-8-fluoro-7-(3-hydroxynaphthalen-1-yl)quinazolin-4-yl)-2,5-dimethyl-piperazin-1-yl) prop-2-en-1-one]	+++ (+++ indicates binding activity greater than 90%)
